Measurements taken from patent US12544395B2, “Combination compositions comprising a beta-lactamase inhibitor and uses thereof” (priority 2018, dated 2026).

Tests used:
Format in all cases: cell-based
E. coli 2150 = assay: Broth microdilution MIC (strain enzymes: SHV-3, TEM-1)
E. coli 2806 = assay: Broth microdilution MIC (strain enzymes: SHV-12, TEM-1)
E. coli ESBL 2 = assay: Broth microdilution MIC (strain enzymes: TEM-1)
E. coli ESBL 4 = assay: Broth microdilution MIC (strain enzymes: CTX-M15, TEM-1)
E. coli SI-AIRT-4 = assay: Broth microdilution MIC (strain enzymes: TEM-1)
E. coli SI-LP377 = assay: microbe, parasite or virus in culture
E. coli SI-PBLII = assay: Broth microdilution MIC (strain enzymes: CTX-M2, TEM-1)
K. oxytoca 169219 = assay: Broth microdilution MIC (strain enzymes: TEM-1, CTXM-15)
K. pneumoniae 3151 = assay: Broth microdilution MIC (strain enzymes: SHV-12, TEM-1)
K. pneumoniae 115468 = assay: Broth microdilution MIC (strain enzymes: TEM-1)
K. pneumoniae 153239 = assay: Broth microdilution MIC (strain enzymes: SHV-11, TEM-1)
K. pneumoniae 170375 = assay: Broth microdilution MIC (strain enzymes: SHV-12, CTX-M15 and TEM-1)
K. pneumoniae 319478 = assay: Broth microdilution MIC (strain enzymes: SHV-12, CTX-M3 and TEM-1)
K. pneumoniae 329633 = assay: Broth microdilution MIC (strain enzymes: SHV-5, TEM-1)
K. pneumoniae 11/23 LF#2 = assay: microbe, parasite or virus in culture
K. pneumoniae ESBL 10 = assay: Broth microdilution MIC (strain enzymes: SHV-12, TEM-1)
K. pneumoniae ESBL 7 #2 = assay: Broth microdilution MIC (strain enzymes: SHV-12, CTX-M15, TEM-1)
K. pneumoniae KP 8 = assay: Broth microdilution MIC (strain enzymes: TEM-10, TEM-1, CTX-M15)
K. pneumoniae KPN 508 = assay: Broth microdilution MIC (strain enzymes: SHV-7, TEM-1)
K. pneumoniae SI-KP NO30 = assay: Broth microdilution MIC (strain enzymes: TEM-26b, SHV-60, SHV-26)
[1] = test system: panel of ESBL-producing Enterobacteriaceae (40 strains); assay: Broth microdilution MIC50/MIC90 summary over the panel

Nc1nc(/C(=C/CC(=O)O)C(=O)N[C@@H]2C(=O)N3C(C(=O)O)=CCS[C@H]23)cs1 [Ceftibuten, ceftibuten, reference compound]
32 µg/mL: MIC (K. pneumoniae 170375; Klebsiella pneumoniae, 170375, alone, read-out: MIC of ceftibuten (CTB)) | MIC (K. pneumoniae KPN 508; Klebsiella pneumoniae, KPN508, alone, read-out: MIC of ceftibuten (CTB))
8 µg/mL: MIC (E. coli ESBL 2; Escherichia coli, ESBL2, alone, read-out: MIC of ceftibuten (CTB)) | MIC (K. pneumoniae 115468; Klebsiella pneumoniae, 115468, alone, read-out: MIC of ceftibuten (CTB)) | MIC50 ([1]; read-out: Ceftibuten MIC50)
0.5 µg/mL: MIC (E. coli 2150; Escherichia coli, 2150, alone, read-out: MIC of ceftibuten (CTB)) | MIC (E. coli SI-AIRT-4; Escherichia coli, SIAIRT4, alone, read-out: MIC of ceftibuten (CTB)) | MIC (E. coli SI-PBLII; Escherichia coli, alone, read-out: MIC of ceftibuten (CTB))
4 µg/mL: MIC (E. coli SI-LP377; Escherichia coli, SILP377, read-out: MIC of ceftibuten (CTB)) | MIC (K. oxytoca 169219; Klebsiella oxytoca, 169219, alone, read-out: MIC of ceftibuten (CTB))
16 µg/mL: MIC (K. pneumoniae 329633; Klebsiella pneumoniae, 329633, alone, read-out: MIC of ceftibuten (CTB)) | MIC (K. pneumoniae ESBL 10; Klebsiella pneumoniae, ESBL10, alone, read-out: MIC of ceftibuten (CTB))
> 32 µg/mL: MIC (E. coli ESBL 4; Escherichia coli, ESBL4, alone, read-out: MIC of ceftibuten (CTB)) | MIC (K. pneumoniae 3151; Klebsiella pneumoniae, 3151, alone, read-out: MIC of ceftibuten (CTB)) | MIC (K. pneumoniae 319478; Klebsiella pneumoniae, 319478, alone, read-out: MIC of ceftibuten (CTB)) | MIC (K. pneumoniae ESBL 7 #2; Klebsiella pneumoniae, alone, read-out: MIC of ceftibuten (CTB)) | MIC90 ([1]; read-out: Ceftibuten MIC90)
0.25 µg/mL: MIC (K. pneumoniae 153239; Klebsiella pneumoniae, 153239, alone, read-out: MIC of ceftibuten (CTB)) | MIC (K. pneumoniae KP 8; Klebsiella pneumoniae, KP8, alone, read-out: MIC of ceftibuten (CTB)) | MIC (K. pneumoniae SI-KP NO30; Klebsiella pneumoniae, SIKPNO30, alone, read-out: MIC of ceftibuten (CTB))
2 µg/mL: MIC (E. coli 2806; Escherichia coli, 2806, alone, read-out: MIC of ceftibuten (CTB)) | MIC (K. pneumoniae 11/23 LF#2; Klebsiella pneumoniae, read-out: MIC of ceftibuten (CTB))

O=C(O)[C@H]1/C(=C/CO)O[C@@H]2CC(=O)N21 [Clavulanic acid, clavulanic acid, reference compound]
0.06 µg/mL: MIC of ceftibuten (CTB) (K. pneumoniae 3151; with inhibitor at 4 μg/mL) | MIC of cefalexin (LEX) (K. pneumoniae 115468; with inhibitor at 4 μg/mL) | MIC of cefdinir (CDR) (K. pneumoniae 115468; with inhibitor at 4 μg/mL) | MIC of ceftibuten (CTB) (K. pneumoniae 153239; with inhibitor at 4 μg/mL) | MIC of ceftibuten (CTB) (K. pneumoniae 170375; with inhibitor at 4 μg/mL) | MIC of ceftibuten (CTB) (K. pneumoniae 319478; with inhibitor at 4 μg/mL) | MIC of cefixime (CFM) (K. pneumoniae KP 8; with inhibitor at 4 μg/mL) | MIC of ceftibuten (CTB) (K. pneumoniae KP 8; with inhibitor at 4 μg/mL) | MIC of ceftibuten (CTB) (K. pneumoniae KPN 508; with inhibitor at 4 μg/mL) | MIC of cefixime (CFM) (K. pneumoniae SI-KP NO30; with inhibitor at 4 μg/mL) | MIC of ceftibuten (CTB) (K. pneumoniae SI-KP NO30; with inhibitor at 4 μg/mL)
2 µg/mL: MIC of cefixime (CFM) (K. pneumoniae 11/23 LF#2; with inhibitor at 4 μg/mL) | Cefdinir MIC90 ([1]; with inhibitor at 4 μg/mL) | Cefixime MIC90 ([1]; with inhibitor at 4 μg/mL) | Ceftibuten MIC90 ([1]; with inhibitor at 4 μg/mL)
0.25 µg/mL: MIC of cefalexin (LEX) (E. coli 2806; with inhibitor at 4 μg/mL) | MIC of cefdinir (CDR) (E. coli 2806; with inhibitor at 4 μg/mL) | MIC of ceftibuten (CTB) (E. coli 2806; with inhibitor at 4 μg/mL) | MIC of cefalexin (LEX) (E. coli SI-AIRT-4; with inhibitor at 4 μg/mL) | MIC of cefdinir (CDR) (E. coli SI-AIRT-4; with inhibitor at 4 μg/mL) | MIC of cefixime (CFM) (E. coli SI-AIRT-4; with inhibitor at 4 μg/mL) | MIC of cefalexin (LEX) (K. oxytoca 169219; with inhibitor at 4 μg/mL) | MIC of cefdinir (CDR) (K. oxytoca 169219; with inhibitor at 4 μg/mL) | MIC of ceftibuten (CTB) (K. pneumoniae 115468; with inhibitor at 4 μg/mL) | MIC of cefalexin (LEX) (K. pneumoniae 153239; with inhibitor at 4 μg/mL) | MIC of cefdinir (CDR) (K. pneumoniae 153239; with inhibitor at 4 μg/mL) | MIC of cefixime (CFM) (K. pneumoniae 153239; with inhibitor at 4 μg/mL) | MIC of cefalexin (LEX) (K. pneumoniae 329633; with inhibitor at 4 μg/mL) | MIC of cefdinir (CDR) (K. pneumoniae 329633; with inhibitor at 4 μg/mL) | MIC of ceftibuten (CTB) (K. pneumoniae 11/23 LF#2; with inhibitor at 4 μg/mL) | MIC of cefixime (CFM) (K. pneumoniae KPN 508; with inhibitor at 4 μg/mL) | Ceftibuten MIC50 ([1]; with inhibitor at 4 μg/mL)
>32 µg/mL: MIC of cefalexin (LEX) (E. coli ESBL 2; with inhibitor at 4 μg/mL) | MIC of cefdinir (CDR) (E. coli ESBL 2; with inhibitor at 4 μg/mL) | MIC of cefalexin (LEX) (K. pneumoniae ESBL 7 #2; with inhibitor at 4 μg/mL) | MIC of cefdinir (CDR) (K. pneumoniae ESBL 7 #2; with inhibitor at 4 μg/mL) | MIC of cefixime (CFM) (K. pneumoniae ESBL 7 #2; with inhibitor at 4 μg/mL) | MIC of ceftibuten (CTB) (K. pneumoniae ESBL 7 #2; with inhibitor at 4 μg/mL)
16 µg/mL: Cephalexin MIC50 ([1]; with inhibitor at 4 μg/mL)
0.0149 µg/mL: MIC of ceftibuten (CTB) (K. oxytoca 169219; with inhibitor at 4 μg/mL)
0.125 µg/mL: MIC of ceftibuten (CTB) (E. coli SI-LP377; with inhibitor at 4 μg/mL) | MIC of cefixime (CFM) (K. oxytoca 169219; with inhibitor at 4 μg/mL) | MIC of cefalexin (LEX) (K. pneumoniae 3151; with inhibitor at 4 μg/mL) | MIC of cefdinir (CDR) (K. pneumoniae 3151; with inhibitor at 4 μg/mL) | MIC of cefixime (CFM) (K. pneumoniae 3151; with inhibitor at 4 μg/mL) | MIC of cefixime (CFM) (K. pneumoniae 115468; with inhibitor at 4 μg/mL) | MIC of cefixime (CFM) (K. pneumoniae ESBL 10; with inhibitor at 4 μg/mL) | MIC of ceftibuten (CTB) (K. pneumoniae ESBL 10; with inhibitor at 4 μg/mL) | MIC of cefalexin (LEX) (K. pneumoniae KP 8; with inhibitor at 4 μg/mL) | MIC of cefdinir (CDR) (K. pneumoniae KP 8; with inhibitor at 4 μg/mL) | MIC of cefalexin (LEX) (K. pneumoniae KPN 508; with inhibitor at 4 μg/mL) | MIC of cefdinir (CDR) (K. pneumoniae KPN 508; with inhibitor at 4 μg/mL) | MIC of cefalexin (LEX) (K. pneumoniae SI-KP NO30; with inhibitor at 4 μg/mL) | MIC of cefdinir (CDR) (K. pneumoniae SI-KP NO30; with inhibitor at 4 μg/mL)
32 µg/mL: MIC of cefixime (CFM) (E. coli ESBL 2; with inhibitor at 4 μg/mL) | Cephalexin MIC90 ([1]; with inhibitor at 4 μg/mL)
1 µg/mL: MIC of cefixime (CFM) (E. coli 2150; with inhibitor at 4 μg/mL) | MIC of cefixime (CFM) (E. coli 2806; with inhibitor at 4 μg/mL) | MIC of cefalexin (LEX) (E. coli ESBL 4; with inhibitor at 4 μg/mL) | MIC of cefdinir (CDR) (E. coli ESBL 4; with inhibitor at 4 μg/mL) | MIC of cefixime (CFM) (E. coli ESBL 4; with inhibitor at 4 μg/mL) | MIC of cefalexin (LEX) (E. coli SI-LP377; with inhibitor at 4 μg/mL) | MIC of cefdinir (CDR) (E. coli SI-LP377; with inhibitor at 4 μg/mL) | MIC of cefixime (CFM) (E. coli SI-PBLII; with inhibitor at 4 μg/mL) | MIC of cefalexin (LEX) (K. pneumoniae 170375; with inhibitor at 4 μg/mL) | MIC of cefdinir (CDR) (K. pneumoniae 170375; with inhibitor at 4 μg/mL)
4 µg/mL: MIC of ceftibuten (CTB) (E. coli ESBL 2; with inhibitor at 4 μg/mL) | Cefpodoxime MIC90 ([1]; with inhibitor at 4 μg/mL)
0.03 µg/mL: MIC of cefixime (CFM) (K. pneumoniae 329633; with inhibitor at 4 μg/mL) | MIC of ceftibuten (CTB) (K. pneumoniae 329633; with inhibitor at 4 μg/mL)
0.5 µg/mL: MIC of cefalexin (LEX) (E. coli 2150; with inhibitor at 4 μg/mL) | MIC of cefdinir (CDR) (E. coli 2150; with inhibitor at 4 μg/mL) | MIC of ceftibuten (CTB) (E. coli 2150; with inhibitor at 4 μg/mL) | MIC of ceftibuten (CTB) (E. coli ESBL 4; with inhibitor at 4 μg/mL) | MIC of ceftibuten (CTB) (E. coli SI-AIRT-4; with inhibitor at 4 μg/mL) | MIC of cefixime (CFM) (E. coli SI-LP377; with inhibitor at 4 μg/mL) | MIC of cefalexin (LEX) (E. coli SI-PBLII; with inhibitor at 4 μg/mL) | MIC of cefdinir (CDR) (E. coli SI-PBLII; with inhibitor at 4 μg/mL) | MIC of ceftibuten (CTB) (E. coli SI-PBLII; with inhibitor at 4 μg/mL) | MIC of cefixime (CFM) (K. pneumoniae 170375; with inhibitor at 4 μg/mL) | MIC of cefalexin (LEX) (K. pneumoniae 319478; with inhibitor at 4 μg/mL) | MIC of cefdinir (CDR) (K. pneumoniae 319478; with inhibitor at 4 μg/mL) | MIC of cefixime (CFM) (K. pneumoniae 319478; with inhibitor at 4 μg/mL) | MIC of cefalexin (LEX) (K. pneumoniae 11/23 LF#2; with inhibitor at 4 μg/mL) | MIC of cefdinir (CDR) (K. pneumoniae 11/23 LF#2; with inhibitor at 4 μg/mL) | MIC of cefalexin (LEX) (K. pneumoniae ESBL 10; with inhibitor at 4 μg/mL) | MIC of cefdinir (CDR) (K. pneumoniae ESBL 10; with inhibitor at 4 μg/mL) | Cefdinir MIC50 ([1]; with inhibitor at 4 μg/mL) | Cefixime MIC50 ([1]; with inhibitor at 4 μg/mL) | Cefpodoxime MIC50 ([1]; with inhibitor at 4 μg/mL)
